In patent US10526327B2, “Histone demethylase inhibitors” (CELGENE QUANTICEL RESEARCH, INC., priority 2013, dated 2020):

Tests used:
KDM5A/B = assay: In vitro cell-based assay: immuno-blot quantification of tri-methyl H3K4 in ZR-75-1 breast cancer cells; conditions: 72 hours, tri-methyl H3K4 level relative to GAPDH, percent of DMSO, read-out: Cellular IC50
From the text: An assay to measure the degree of cellular inhibition of KDM5A and 5B was developed. This quantitative immuno-blotting assay measures the amount tri-methylated histone H3 at amino acid Lysine number 4, a specific substrate […] of the direct enzymatic activity of the histone demethylases KDM5A and KDM5B from extracts of the ZR-75-1 breast cancer cell line.
This assay is a fluorometric immunoassay for the quantification of tri-methyl H3K4 extracted from cells treated with test compound and is used as a measure of the cellular inhibition of KDM5A/B.
ZR-75-1 (PTEN null, ER+) breast cancer cells numbering 50,000 (ATCC) were seeded into each well of a 96-well tissue culture treated plate and then exposed to an 11 point dilution of test compound with final concentration ranges of test compound ranging from 1250 μM to 10 nM. Cells were left in the presence of test compound for 72 hours. Extracts were prepared containing all of the cellular histone material using detergent based lysis and sonication methods. These lysates were subsequently normalized for total protein content using a colorimetric bicinchonic acid assay (MicroBCA Pierce/Thermo Scientific). Normalized cell extracts were then subjected to typical immuno-blotting procedures using NuPage reagents (Life Technologies). Electrophoretically separated histones were then transferred and immobilized using polyvinylidene difluoride membrane (Immobilon-FL Millipore). The amount of tri-methylated lysine 4 of histone H3 was detected using an antibody specific to the tri-methylated state (Cell Signaling Technologies) and quantified on an infrared imager using a densitometry software package (Odyssey CLx, Image Studio, Li-Cor). This background subtracted densitometry value was reported as a ration of the GAPDH amount for that sample and then calculated as a percent of the DMSO treated sample. The software package XL-fit (IDBS) was then used to calculate a relative IC50 value for the dilution series of a given test compound according to the equation: fit=(D+((Vmax*(x^n))/((x^n)+(Km^n)))).

JMJD2C = target: T1, JMJD2C (Homo sapiens, UniProt Q9H3R0); assay: JMJD2C in vitro enzyme inhibition assay (TR-FRET); type: biochemical
T1 construct: purchased BPS Bioscience 50105
T1 sequence (Q9H3R0 2-372): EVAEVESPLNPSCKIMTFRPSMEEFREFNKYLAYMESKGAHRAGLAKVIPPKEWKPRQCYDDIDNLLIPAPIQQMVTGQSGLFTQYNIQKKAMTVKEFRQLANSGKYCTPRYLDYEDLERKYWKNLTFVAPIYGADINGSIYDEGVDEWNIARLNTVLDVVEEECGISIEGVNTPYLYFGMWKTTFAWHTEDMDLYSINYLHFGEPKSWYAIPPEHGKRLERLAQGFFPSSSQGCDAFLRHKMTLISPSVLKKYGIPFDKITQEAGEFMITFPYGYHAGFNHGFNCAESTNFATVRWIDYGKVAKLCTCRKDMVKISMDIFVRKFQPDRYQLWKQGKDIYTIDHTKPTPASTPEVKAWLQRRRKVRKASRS
Method in brief: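 Baculovirus-expressed human JMJD2C (AA 2-372) at 0.3 nM demethylated 300 nM biotin-H3K9me3 peptide with 2 μM alpha-ketoglutarate in HEPES pH 7.3 containing ascorbate and Fe(II), 30 min at room temperature. EDTA-stopped product was read by TR-FRET with Eu-anti-H3K9me2 and streptavidin-APC; 665/615 ratios from 11-point dilutions gave IC50.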

Structure (SMILES) | IC50 (KDM5A/B) | IC50 (JMJD2C)
Oc1nc(Oc2cnn([C@H]3CCN(c4ccc(F)cc4)C3)c2)nc2cnccc12 [Example 146, 2-({1-[(3S)-1-(4-fluorophenyl)pyrrolidin-3-yl]-1H-pyrazol-4-yl}oxy)pyrido[3,4-d]pyrimidin-4-ol] | 1 to 10 µM | ≤ 0.1 µM
O=C(C1CC1)N1CC[C@@H](n2cc(Oc3nc(O)c4ccncc4n3)cn2)C1 [Example 131, 2-({1-[(3R)-1-cyclopropanecarbonylpyrrolidin-3-yl]-1H-pyrazol-4-yl}oxy)pyrido[3,4-d]pyrimidin-4-ol] | 1 to 10 µM | ≤ 0.1 µM
Oc1nc(Oc2cnn([C@H]3CCN(c4ccccc4)C3)c2)nc2cnccc12 [Example 145, 2-({1-[(3S)-1-phenylpyrrolidin-3-yl]-1H-pyrazol-4-yl}oxy)pyrido[3,4-d]pyrimidin-4-ol] | 1 to 10 µM | ≤ 0.1 µM
Oc1nc(Oc2cnn([C@@H]3CCN(c4ccc(F)cc4)C3)c2)nc2cnccc12 [Example 134, 2-({1-[(3R)-1-(4-fluorophenyl)pyrrolidin-3-yl]-1H-pyrazol-4-yl}oxy)pyrido[3,4-d]pyrimidin-4-ol] | 0.1 to 1 µM | ≤ 0.1 µM
Oc1nc(OCCCC(F)(F)F)nc2cnccc12 [Example 20, 2-(4,4,4-trifluorobutoxy)pyrido[3,4-d]pyrimidin-4-ol] | > 10 µM | 0.1 to 1 µM
Oc1nc(OCCc2ccccc2)nc2cnccc12 [Example 18, 2-(2-phenylethoxy)pyrido[3,4-d]pyrimidin-4-ol] | 1 to 10 µM | 0.1 to 1 µM
CCS(=O)(=O)N1CCC[C@@H](n2cc(Oc3nc(O)c4ccncc4n3)cn2)C1 [Example 150, 2-({1-[(3R)-1-(ethanesulfonyl)piperidin-3-yl]-1H-pyrazol-4-yl}oxy)pyrido[3,4-d]pyrimidin-4-ol] | 0.1 to 1 µM | ≤ 0.1 µM
C[C@H](c1ccccc1)n1cc(Oc2nc(O)c3ccncc3n2)cn1 [Example 117, 2-({1-[(1R)-1-phenylethyl]-1H-pyrazol-4-yl}oxy)pyrido[3,4-d]pyrimidin-4-ol] | 1 to 10 µM | ≤ 0.1 µM
CCS(=O)(=O)N1CCC[C@H](n2cc(Oc3nc(O)c4ccncc4n3)cn2)C1 [Example 161, 2-({1-[(3S)-1-(ethanesulfonyl)piperidin-3-yl]-1H-pyrazol-4-yl}oxy)pyrido[3,4-d]pyrimidin-4-ol] | 0.1 to 1 µM | ≤ 0.1 µM
O=S(=O)(C1CC1)N1CC[C@H](n2cc(Oc3nc(O)c4ccncc4n3)cn2)C1 [Example 137, 2-({1-[(3S)-1-(cyclopropanesulfonyl)pyrrolidin-3-yl]-1H-pyrazol-4-yl}oxy)pyrido[3,4-d]pyrimidin-4-ol] | 0.1 to 1 µM | ≤ 0.1 µM
C[C@@H](c1ccccc1)n1cc(Oc2nc(O)c3ccncc3n2)cn1 [Example 118, 2-({1-[(1S)-1-phenylethyl]-1H-pyrazol-4-yl}oxypyrido) [3,4-d]pyrimidin-4-ol] | 0.1 to 1 µM | ≤ 0.1 µM
O=C(c1ccccc1)N1CC[C@@H](n2cc(Oc3nc(O)c4ccncc4n3)cn2)C1 [Example 132, 2-({1-[(3R)-1-benzoylpyrrolidin-3-yl]-1H-pyrazol-4-yl}oxy)pyrido[3,4-d]pyrimidin-4-ol] | 1 to 10 µM | ≤ 0.1 µM
Oc1nc(OCCC(F)(F)F)nc2cnccc12 [Example 13, 2-(3,3,3-trifluoropropoxy)pyrido[3,4-d]pyrimidin-4-ol] | > 10 µM | 0.1 to 1 µM
O=S(=O)(c1ccccc1)N1CC[C@H](n2cc(Oc3nc(O)c4ccncc4n3)cn2)C1 [Example 138, 2-({1-[(3S)-1-(benzenesulfonyl)pyrrolidin-3-yl]-1H-pyrazol-4-yl}oxy)pyrido[3,4-d]pyrimidin-4-ol] | 1 to 10 µM | ≤ 0.1 µM
Oc1nc(Oc2cnn([C@@H]3CCNC3)c2)nc2cnccc12 [Example 125, 2-({1-[(3R)-pyrrolidin-3-yl]-1H-pyrazol-4-yl}oxy)pyrido[3,4-d]pyrimidin-4-ol] | > 10 µM | ≤ 0.1 µM
O=C(C1CC1)N1CCC[C@@H](n2cc(Oc3nc(O)c4ccncc4n3)cn2)C1 [Example 156, 2-({1-[(3R)-1-cyclopropanecarbonylpiperidin-3-yl]-1H-pyrazol-4-yl}oxy)pyrido[3,4-d]pyrimidin-4-ol] | > 10 µM | ≤ 0.1 µM
CCS(=O)(=O)N1CC[C@H](n2cc(Oc3nc(O)c4ccncc4n3)cn2)C1 [Example 136, 2-({1-[(3S)-1-(ethanesulfonyl)pyrrolidin-3-yl]-1H-pyrazol-4-yl}oxy)pyrido[3,4-d]pyrimidin-4-ol] | 0.1 to 1 µM | ≤ 0.1 µM
O=C(C1CC1)N1CC[C@H](n2cc(Oc3nc(O)c4ccncc4n3)cn2)C1 [Example 141, 2-({1-[(3S)-1-cyclopropanecarbonylpyrrolidin-3-yl]-1H-pyrazol-4-yl}oxy)pyrido[3,4-d]pyrimidin-4-ol] | > 10 µM | ≤ 0.1 µM
CC(C)CCOc1nc(O)c2ccncc2n1 [Example 15, 2-(3-methylbutoxy)pyrido[3,4-d]pyrimidin-4-ol] | > 10 µM | 0.1 to 1 µM
N#CCC(=O)N1CC[C@@H](n2cc(Oc3nc(O)c4ccncc4n3)cn2)C1 [Example 130, 3-[(3R)-3-[4-({4-hydroxypyrido[3,4-d]pyrimidin-2-yl}oxy)-1H-pyrazol-1-yl]pyrrolidin-1-yl]-3-oxopropanenitrile] | > 10 µM | ≤ 0.1 µM
Oc1nc(Oc2cnn(CCN3CCOCC3)c2)nc2cnccc12 [Example 124, 2-({1-[2-(morpholin-4-yl)ethyl]-1H-pyrazol-4-yl}oxy)pyrido[3,4-d]pyrimidin-4-ol] | 0.1 to 1 µM | ≤ 0.1 µM
CC(=O)N1CCC[C@H](n2cc(Oc3nc(O)c4ccncc4n3)cn2)C1 [Example 164, 1-[(3S)-3-[4-({4-hydroxypyrido[3,4-d]pyrimidin-2-yl}oxy)-1H-pyrazol-1-yl]piperidin-1-yl]ethan-1-one] | 1 to 10 µM | ≤ 0.1 µM
Oc1nc(Oc2cnn([C@H]3CCN(c4ccc(Cl)cc4)C3)c2)nc2cnccc12 [Example 148, 2-({1-[(3S)-1-(4-chlorophenyl)pyrrolidin-3-yl]-1H-pyrazol-4-yl}oxy)pyrido[3,4-d]pyrimidin-4-ol] | 1 to 10 µM | ≤ 0.1 µM
O=S(=O)(C1CC1)N1CCC[C@H](n2cc(Oc3nc(O)c4ccncc4n3)cn2)C1 [Example 162, 2-({1-[(3S)-1-(cyclopropanesulfonyl)piperidin-3-yl]-1H-pyrazol-4-yl}oxy)pyrido[3,4-d]pyrimidin-4-ol] | 0.1 to 1 µM | ≤ 0.1 µM
O=S(=O)(c1ccccc1)N1CC[C@@H](n2cc(Oc3nc(O)c4ccncc4n3)cn2)C1 [Example 128, 2-({1-[(3R)-1-(benzenesulfonyl)pyrrolidin-3-yl]-1H-pyrazol-4-yl}oxy)pyrido[3,4-d]pyrimidin-4-ol] | 1 to 10 µM | ≤ 0.1 µM
N#CCC(=O)N1CCC[C@@H](n2cc(Oc3nc(O)c4ccncc4n3)cn2)C1 [Example 154, 3-[(3R)-3-[4-({4-hydroxypyrido[3,4-d]pyrimidin-2-yl}oxy)-1H-pyrazol-1-yl]piperidin-1-yl]-3-oxopropanenitrile] | > 10 µM | ≤ 0.1 µM
Oc1nc(Oc2cnn([C@H]3CCN(c4ccccc4F)C3)c2)nc2cnccc12 [Example 147, 2-({1-[(3S)-1-(2-fluorophenyl)pyrrolidin-3-yl]-1H-pyrazol-4-yl}oxy)pyrido[3,4-d]pyrimidin-4-ol] | 1 to 10 µM | ≤ 0.1 µM
N#CCC(=O)N1CCC[C@H](n2cc(Oc3nc(O)c4ccncc4n3)cn2)C1 [Example 166, 3-[(3S)-3-[4-({4-hydroxypyrido[3,4-d]pyrimidin-2-yl}oxy)-1H-pyrazol-1-yl]piperidin-1-yl]-3-oxopropanenitrile] | > 10 µM | ≤ 0.1 µM
Oc1nc(Oc2cnn(Cc3ccccc3Cl)c2)nc2cnccc12 [Example 121, 2-({1-[(2-chlorophenyl)methyl]-1H-pyrazol-4-yl}oxy)pyrido[3,4-d]pyrimidin-4-ol] | 1 to 10 µM | ≤ 0.1 µM
